{"source": "patent US20230303712A1", "about": "“METHODS OF TREATING GLIOBLASTOMA” (Ramot at Tel-Aviv University Ltd., priority 2020, published 2023)", "key": {"[1]": {"system": "murine GB cells (GL261, iAGR53, PNp53, EGFRviii-shP16)", "test": "3D spheroid invasion in Matrigel, murine GB cells co-cultured with murine microglia", "format": "cell-based", "experimental": "Tumor spheroids. Tumor spheroids were prepared from mCherry/iRFP/GFP-labeled patient-derived, human U251 or murine GB cells (GL261, iAGR53, PNp53, EGFRviii-shP16), either alone or co-cultured with unlabeled primary human/murine microglia (4:1 ratio), using our modified hanging-drop method, as we previously described. For assessment of cell invasion, GB spheroids (4,000 cells/sphere) were embedded in Matrigel (Corning), seeded in a 96-well plate, and incubated with complete DMEM or complete DMEM supplemented with SELPi (0.5 µM). […] For FACS analysis, GB spheroids (8,000 cells/sphere) were embedded in Matrigel, seeded in a 12-well plate, and treated with complete DMEM, 0% serum microglia medium or microglia CM for 24-48 h. Cells were then recovered using Cell Recovery Solution (Corning) and further analyzed by FACS."}, "primary human microglia": {"system": "primary human microglia", "test": "Phagocytosis assay with fluorescent latex beads", "format": "cell-based", "settings": "added to rSELP; SELPi 0.5 µM, antibodies 2.5 µg/ml", "experimental": "Phagocytosis assay. Primary human/murine microglia were seeded in 96 well plates (1 × 10^5 cells/ml) in microglia medium, microglia medium supplemented with rSELP (1.5 µg/ml for human microglia and 3.5 µg/ml for murine microglia), microglia medium supplemented with rSELP and SELPi (0.5 µM), microglia medium supplemented with rSELP and anti-PSGL-1 neutralizing antibody (2.5 µg/ml), microglia medium 13 supplemented with rSELP and anti-CD44 neutralizing antibody (2.5 µg/ml) or microglia medium supplemented with rSELP and anti-CD24 neutralizing antibody (2.5 µg/ml) for 48 h. The medium was then replaced by fresh microglia medium containing green fluorescence latex beads for 2-6 h and washed with PBS supplemented with Hoechst staining solution for 10 min. For evaluation of murine macrophages phagocytosis abilities, macrophages were seeded in 96 well plates (5 × 10^5 cells/ml), treated with macrophages medium, macrophages medium supplemented with rSELP (3.5 µg/ml), macrophages medium supplemented with rSELP and SELPi (0.5 µM), macrophages medium supplemented with rSELP and anti-PSGL-1 neutralizing antibody (2.5 µg/ml), macrophages medium supplemented with rSELP and anti-CD44 neutralizing antibody (2.5 µg/ml) or macrophages medium supplemented with rSELP and anti-CD24 neutralizing antibody (2.5 µg/ml) for 48 h. […]"}, "U251 tumors": {"system": "U251 tumors", "test": "SELPi treatment in human U251 GB model", "format": "in vivo, SCID mice", "experimental": "SELPi (0.8 mg/ml) was dissolved in DMSO 0.01%), polyethyleneglycol (93.2 mg/ml), Tween-80 (14.8 mg/ml), and DDW. Mice were treated intravenously (IV) twice a week with PBS, 16 mg/kg SELPi or vehicle (0.01% DMSO, 93.2 mg/ml polyethyleneglycol and 14.8 mg/ml Tween-80 in DDW). Tumor development was followed by monitoring the fluorescence intensity using the CRI Maestro™ imaging system.\nIntravital imaging. The CRI Maestro™ non-invasive fluorescence imaging system was used to follow tumor progression in mice bearing mCherry- or iRFP- labeled U251 tumors. Mice were anesthetized by ketamine (150 mg/kg) and xylazine (12 mg/kg) injected IP, and were placed inside the imaging system. Multispectral image-cubes were used through 550-800 nm spectral range in 10 nm steps using excitation (575-605 nm) and emission (645 nm longpass) filter set. Mice autofluorescence and background signals were eliminated by spectral analysis and by applying a linear unmixing algorithm."}, "PD-GB4 tumors": {"system": "PD-GB4 tumors", "test": "Local (intraventricular cannula) SELPi treatment in PD-GB PDX model", "format": "in vivo, SCID mice", "experimental": "Tumor volume was evaluated by MRI. […] Twelve days post cell inoculation, 3 mice per group were euthanized and brain were resected and further processed for histology analysis. […] Brain cannulas (NBT) were implanted intraventricularly in the co-lateral hemisphere and the mice were treated stereotactically via the cannulas (1 µl at 0.2 µl/min flow rate) with PBS, 2 mg/kg SELPi dissolved in DMSO or vehicle (DMSO). Three weeks post cell-inoculation, the mice were euthanized, the cannulas were removed, and tumor volume was evaluated by MRI (MR solutions). Brains were resected for immunostaining.\nMRI imaging. Tumor bearing mice were imaged at the Sackler Cellular & Molecular Imaging Center (SCMIC), Tel Aviv University. Mice were anesthetized by ketamine (150 mg/kg) and xylazine (12 mg/kg) injected IP. T1 with contrast agent (Magnetol, Gd-DTPA, Soreq M.R.C. Israel Radiopharmaceuticals) and T2 weighted images were taken by 4.7T MRI - MRS 4000™ (MR solutions)."}, "E-Selectin": {"biological_target": "T1, E-Selectin (Homo sapiens, UniProt P16581)", "T1 sequence (P16581 22-610)": "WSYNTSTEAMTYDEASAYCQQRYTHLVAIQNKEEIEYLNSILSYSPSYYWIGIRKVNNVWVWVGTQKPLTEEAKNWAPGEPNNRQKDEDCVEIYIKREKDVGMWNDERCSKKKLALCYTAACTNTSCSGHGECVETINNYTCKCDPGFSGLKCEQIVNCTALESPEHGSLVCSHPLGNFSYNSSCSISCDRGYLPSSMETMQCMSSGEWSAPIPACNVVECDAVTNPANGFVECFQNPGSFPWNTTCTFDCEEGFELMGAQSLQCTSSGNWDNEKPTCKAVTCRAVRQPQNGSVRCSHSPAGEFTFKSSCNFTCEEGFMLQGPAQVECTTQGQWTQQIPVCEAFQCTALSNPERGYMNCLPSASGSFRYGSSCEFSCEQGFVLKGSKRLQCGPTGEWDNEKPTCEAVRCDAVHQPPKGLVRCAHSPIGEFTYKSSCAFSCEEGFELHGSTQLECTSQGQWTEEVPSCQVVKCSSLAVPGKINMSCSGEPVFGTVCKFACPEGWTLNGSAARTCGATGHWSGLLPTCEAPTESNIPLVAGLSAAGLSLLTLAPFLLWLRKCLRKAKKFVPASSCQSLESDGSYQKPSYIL", "settings": "cited from earlier work"}}, "note": "Entries after “also recorded” stand apart in the source; their conditions may differ."}
{"smiles": "COc1ccc(C2CC(c3c(O)cc(C)oc3=O)=NCCS2)c(OC)c1", "note": "(stereo not drawn) [SELPi, 3-[7-(2,4-Dimethoxyphenyl)-2,3,6,7-tetrahydro-1,4-thiazepin-5-yl]-4-hydroxy-6-methyl-2H-pyran-2-one]", "values": [{"measurement": "invasion of GB spheroids co-cultured with murine microglia", "setting": "[1]; mesenchymal, proneural and classical lenti-induced murine GB subtypes", "result": "significantly reduced the invasion"}, {"measurement": "3D spheroid invasion, murine GL261", "setting": "[1]; murine GL261 GB model", "result": "effect of SELPi on GB spheroids was observed"}, {"measurement": "restoration of phagocytic function", "setting": "primary human microglia", "result": "restored the phagocytic function"}, {"measurement": "blood vessel density (CD31)", "setting": "U251 tumors; U251 tumors", "result": "reduction"}, {"measurement": "invasion of GB cells (H&E)", "setting": "U251 tumors; U251 tumors", "result": "reduced"}, {"measurement": "microglia activation (Iba1)", "setting": "U251 tumors; U251 tumors", "result": "reduction"}, {"measurement": "proliferation of GB cells (Ki-67)", "setting": "U251 tumors; U251 tumors", "result": "reduced"}, {"measurement": "tumor growth (fluorescence signal, CRI-Maestro)", "setting": "U251 tumors; iRFP-labeled U251, 16 mg/kg SELPi IV twice a week", "result": "reduced the fluorescence signal; also recorded: delayed tumor growth"}, {"measurement": "reduction in tumor volume (MRI)", "setting": "PD-GB4 tumors; PD-GB4, 2 mg/kg SELPi intraventricular via cannula, 21 days post injection", "result": 67, "unit": "%"}, {"measurement": "tumor growth (tumor volume, MRI)", "setting": "PD-GB4 tumors; PD-GB4, local SELPi treatment, day 21", "result": "delayed growth"}, {"measurement": "CD31 density", "setting": "PD-GB4 tumors; PD-GB4 tumors", "result": "reduction"}, {"measurement": "Iba1 density", "setting": "PD-GB4 tumors; PD-GB4 tumors", "result": "reduction"}, {"measurement": "invasion of GB cells", "setting": "PD-GB4 tumors; PD-GB4 tumors", "result": "reduced"}, {"measurement": "proliferation of GB cells", "setting": "PD-GB4 tumors; PD-GB4 tumors", "result": "reduced"}, {"measurement": "inhibiting effect on E-Selectin", "setting": "E-Selectin", "result": "no inhibiting effects"}]}
